Where two headings read alike, the source gives them in different places.
What was measured:
[1] = tested on: influenza A virus (A/PR/8/34); experiment: microbe, parasite or virus in culture; type: cell-based
[2] = tested on: influenza A virus (A/PR/8/34); experiment: MDCK cytopathic effect (CPE) cell protection assay, ATP detection; type: cell-based; conditions: Influenza A virus, PR/8, MDCK
[3] = Influenza A virus, PR/8, Table 1, mean all, class symbol, read-out: bDNA EC99
[4] = Influenza A virus, PR/8, Table 1, viral RNA 50% of control wells, mean all, class symbol, read-out: bDNA EC50
[5] = 72 h, Table 1, MDCK cells, A/PR/8/34, 72 hours, 50% cell protection, mean all, class symbol, read-out: MDCK IC50
[6] = Table 2, class symbol in brackets, read-out: MDCK cell IC50 (uM), class
[7] = Table 2, comparison compounds of WO2005/095400, mean value, read-out: MDCK cell IC50

Row | SMILES | EC99 [1, 3] [µM] | EC50 [1, 4] [nM] | IC50 [2, 5] [µM] | also measured
1 | CC1(C(CC(=O)O)Nc2nc(-c3n[nH]c4ncc(F)cc34)ncc2F)CCCC1 (racemic) [Compound 12, (+/−)-3-(5-fluoro-2-(5-fluoro-1H-pyrazolo[3,4-b]pyridin-3-yl)pyrimidin-4-ylamino)-3-(1-methylcyclopentyl)propanoic acid] | < 0.3 | < 300 | < 0.3 | –
2 | CC(C)(C)C(CCO)Nc1nc(-c2c[nH]c3ncc(F)cc23)c(C#N)cc1F (racemic) [Compound 41, (+/−)-5-fluoro-2-(5-fluoro-1H-pyrrolo[2,3-b]pyridin-3-yl)-6-(1-hydroxy-4,4-dimethylpentan-3-ylamino)pyridine-3-carbonitrile] | 0.3 to 3.3 | < 300 | < 0.3 | –
3 | O=C(O)CC(Nc1nc(-c2c[nH]c3ncc(F)cc23)ncc1F)C1CCC1 (racemic) [Compound 44, (+/−)-3-cyclobutyl-3-((5-fluoro-2-(5-fluoro-1H-pyrrolo[2,3-b]pyridin-3-yl)pyrimidin-4-yl)amino)propanoic acid] | 0.3 to 3.3 | 300 to 3300 | < 0.3 | –
4 | CC(C)(C)C(CCO)Nc1nc(-c2c[nH]c3ncc(F)cc23)ncc1F (racemic) [Compound 45, (+/−)-3-((5-fluoro-2-(5-fluoro-1H-pyrrolo[2,3-b]pyridin-3-yl)pyrimidin-4-yl)amino)-4,4-dimethylpentan-1-ol] | > 3.3 | < 300 | 0.3 to 3.3 | –
5 | CC(C)(C)C(Cc1nn[nH]n1)Nc1nc(-c2c[nH]c3ncc(F)cc23)ncc1F (racemic) [Compound 55, (+/−)-N-(3,3-dimethyl-1-(2H-tetrazol-5-yl)butan-2-yl)-5-fluoro-2-(5-fluoro-1H-pyrrolo[2,3-b]pyridin-3-yl)pyrimidin-4-amine] | 0.3 to 3.3 | < 300 | < 0.3 | –
6 | CC(C)(C)C(Cc1cc(O)no1)Nc1nc(-c2c[nH]c3ncc(F)cc23)ncc1F (racemic) [Compound 62, (+/−)-5-(2-((5-fluoro-2-(5-fluoro-1H-pyrrolo[2,3-b]pyridin-3-yl)pyrimidin-4-yl)amino)-3,3-dimethylbutyl)isoxazol-3-ol] | 0.3 to 3.3 | 300 to 3300 | < 0.3 | –
7 | CC(C)(C)C(Cc1nc(=O)o[nH]1)Nc1nc(-c2c[nH]c3ncc(F)cc23)ncc1F (racemic) [Compound 65, (+/−)-3-(2-((5-fluoro-2-(5-fluoro-1H-pyrrolo[2,3-b]pyridin-3-yl)pyrimidin-4-yl)amino)-3,3-dimethylbutyl)-1,2,4-oxadiazol-5(2H)-one] | 0.3 to 3.3 | < 300 | < 0.3 | –
8 | O=C(O)CC(Nc1nc(-c2c[nH]c3ncc(F)cc23)ncc1F)C1(C(F)(F)F)CCCC1 (racemic) [Compound 75, (+/−)-3-(5-fluoro-2-(5-fluoro-1H-pyrrolo[2,3-b]pyridin-3-yl)pyrimidin-4-ylamino)-3-(1-(trifluoromethyl)cyclopentyl)propanoic acid] | > 3.3 | 300 to 3300 | > 3.3 | –
9 | CC(C)(CF)C(CC(=O)O)Nc1nc(-c2c[nH]c3ncc(F)cc23)ncc1F (racemic) [Compound 76, (+/−)-5-Fluoro-3-((5-fluoro-2-(5-fluoro-1H-pyrrolo[2,3-b]pyridin-3-yl)pyrimidin-4-yl)amino)-4,4-dimethylpentanoic acid] | 0.3 to 3.3 | < 300 | 0.3 to 3.3 | EC50 ([1]; Influenza A virus, PR/8, exemplary data, bDNA, read-out: EC50): 250 nM; EC99 ([1]; exemplary data, bDNA): 1.4 µM; IC50 ([2]; exemplary data, MDCK cell protection, read-out: IC50): 0.423 µM
10 | CCOC(=O)CC(Nc1nc(-c2c[nH]c3ncc(F)cc23)ncc1F)C1(C)CCCCC1 (racemic) [Compound 77, (+/−)-ethyl 3-(5-fluoro-2-(5-fluoro-1H-pyrrolo[2,3-b]pyridin-3-yl)pyrimidin-4-ylamino)-3-(1-methylcyclohexyl)propanoate] | > 3.3 | 300 to 3300 | > 3.3 | –
11 | CC(C)(C(CC(=O)O)Nc1nc(-c2c[nH]c3ncc(F)cc23)ncc1F)C(F)(F)F (racemic) [Compound 79, (+/−)-5,5,5-Trifluoro-3-(5-fluoro-2-(5-fluoro-1H-pyrrolo[2,3-b]pyridin-3-yl)pyrimidin-4-ylamino)-4,4-dimethylpentanoic acid] | 0.3 to 3.3 | < 300 | 0.3 to 3.3 | –
12 | CC1(C(CC(=O)O)Nc2nc(-c3c[nH]c4ncc(Cl)cc34)ncc2F)CCCCC1 (racemic) [Compound 83, (+/−)-3-(2-(5-Chloro-1H-pyrrolo[2,3-b]pyridin-3-yl)-5-fluoropyrimidin-4-ylamino)-3-(1-methylcyclohexyl)propanoic acid] | 0.3 to 3.3 | < 300 | 0.3 to 3.3 | –
13 | CC(CF)(CF)C(CC(=O)O)Nc1nc(-c2c[nH]c3ncc(F)cc23)ncc1F (racemic) [Compound 84, (+/−)-5-Fluoro-3-((5-fluoro-2-(5-fluoro-1H-pyrrolo[2,3-b]pyridin-3-yl)pyrimidin-4-yl)amino)-4-(fluoromethyl)-4-methylpentanoic acid] | > 3.3 | 300 to 3300 | 0.3 to 3.3 | –
14 | CC(C)(C)C(CC(=O)O)Nc1nc(-c2c[nH]c3ncc(F)cc23)ncc1Cl (racemic) [Compound 85, (+/−)-3-((5-chloro-2-(5-fluoro-1H-pyrrolo[2,3-b]pyridin-3-yl)pyrimidin-4-yl)amino)-4,4-dimethylpentanoic acid] | > 3.3 | < 300 | 0.3 to 3.3 | –
15 | O=C(O)CC(Nc1nc(-c2c[nH]c3ncc(F)cc23)ncc1F)C12CC3CC(CC(C3)C1)C2 (racemic) [Compound 86, (+/−)-3-(1-Adamantyl)-3-[[5-fluoro-2-(5-fluoro-1H-pyrrolo[2,3-b]pyridin-3-yl)pyrimidin-4-yl]amino]propionic acid] | 0.3 to 3.3 | < 300 | < 0.3 | –
16 | O=C(O)CC(Nc1nc(-c2c[nH]c3ncc(F)cc23)ncc1F)C1(C(F)(F)F)CC1 (racemic) [Compound 93, (+/−)-3-((5-Fluoro-2-(5-fluoro-1H-pyrrolo[2,3-b]pyridin-3-yl)pyrimidin-4-yl)amino)-3-(1-(trifluoromethyl)cyclopropyl)propanoic acid] | > 3.3 | 300 to 3300 | 0.3 to 3.3 | –
17 | O=C(O)CC(Nc1nc(-c2c[nH]c3ncc(Cl)cc23)ncc1F)C12CC3CC(CC(C3)C1)C2 (racemic) [Compound 94, (+/−)-3-(1-Adamantyl)-3-[[2-(5-chloro-1H-pyrrolo[2,3-b]pyridin-3-yl)-5-fluoro-pyrimidin-4-yl]amino]propanoic acid] | < 0.3 | < 300 | < 0.3 | –
18 | CNS(=O)(=O)C[C@@H](Nc1nc(-c2c[nH]c3ncc(F)cc23)c(C#N)cc1F)C(C)(C)C [Compound 26, (S)-2-(5-Cyano-3-fluoro-6-(5-fluoro-1H-pyrrolo[2,3-b]pyridin-3-yl)pyridin-2ylamino)-N,3,3-trimethylbutane-1-sulfonamide] | < 0.3 | < 300 | – | –
19 | CN(C)S(=O)(=O)C[C@@H](Nc1nc(-c2c[nH]c3ncc(F)cc23)c(C#N)cc1F)C(C)(C)C [Compound 27, (S)-2-(5-Cyano-3-fluoro-6-(5-fluoro-1H-pyrrolo[2,3-b]pyridin-3-yl)pyridin-2ylamino)-N,N,3,3-tetramethylbutane-1-sulfonamide] | 0.3 to 3.3 | < 300 | – | –
20 | CC(C)(C)[C@@H](CS(=O)(=O)NC1CC1)Nc1nc(-c2c[nH]c3ncc(F)cc23)c(C#N)cc1F [Compound 28, (S)-2-(5-Cyano-3-fluoro-6-(5-fluoro-1H-pyrrolo[2,3-b]pyridin-3-yl)pyridin-2ylamino)-N-cyclopropyl-3,3-dimethylbutane-1-sulfonamide] | < 0.3 | < 300 | – | –
21 | COCCNS(=O)(=O)C[C@@H](Nc1nc(-c2c[nH]c3ncc(F)cc23)c(C#N)cc1F)C(C)(C)C [Compound 29, (S)-2-((5-cyano-3-fluoro-6-(5-fluoro-1H-pyrrolo[2,3-b]pyridin-3-yl)pyridin-2-yl)amino)-N-(2-methoxyethyl)-3,3-dimethylbutane-1-sulfonamide] | 0.3 to 3.3 | < 300 | – | –
22 | CC(C)(C)[C@@H](CS(N)(=O)=O)Nc1nc(-c2c[nH]c3ncc(F)cc23)c(C#N)cc1F [Compound 30, (S)-2-((5-cyano-3-fluoro-6-(5-fluoro-1H-pyrrolo[2,3-b]pyridin-3-yl)pyridin-2-yl)amino)-3,3-dimethylbutane-1-sulfonamide] | < 0.3 | < 300 | – | –
23 | CCCNS(=O)(=O)C[C@@H](Nc1nc(-c2c[nH]c3ncc(F)cc23)c(C#N)cc1F)C(C)(C)C [Compound 31, (S)-2-((5-cyano-3-fluoro-6-(5-fluoro-1H-pyrrolo[2,3-b]pyridin-3-yl)pyridin-2-yl)amino)-3,3-dimethyl-N-propylbutane-1-sulfonamide] | < 0.3 | < 300 | – | –
24 | CC(C)(C)C(C[S@+]([O-])CC(=O)O)Nc1nc(-c2c[nH]c3ncc(F)cc23)ncc1F (stereo partly drawn) [Compound 64, 2-((S)-2-(5-fluoro-2-(5-fluoro-1H-pyrrolo[2,3-b]pyridin-3-yl)pyrimidin-4-ylamino)-3,3-dimethylbutylsulfinyl)ethanoic acid] | > 3.3 | < 300 | – | –
25 | CC(O)C[C@@H](Nc1nc(-c2c[nH]c3ncc(F)cc23)ncc1F)C(C)(C)C (stereo partly drawn) [Compound 72, (4R)-4-((5-Fluoro-2-(5-fluoro-1H-pyrrolo[2,3-b]pyridin-3-yl)pyrimidin-4-yl)amino)-5,5-dimethylhexan-2-ol] | > 3.3 | – | – | –
26 | Clc1cnc2[nH]cc(-c3cccc(NC4CCCCC4)n3)c2c1 [Compound C1, reference compound] | – | – | – | IC50 [2, 6]: > 3.3 µM; IC50 [2, 7]: > 20 µM
27 | Clc1cnc2[nH]cc(-c3cccc(NCC4CCCNC4)n3)c2c1 (stereo not shown) [Compound C2, reference compound] | – | – | – | IC50 [2, 6]: > 3.3 µM; IC50 [2, 7]: > 20 µM
